Laboratory results as given in PMC8329121 (Journal of Neuroimmune Pharmacology, 2021).
Changes are numbered by the printed parent chain.

How the values were obtained:
[1] = target: T1, E2C hDAT (C90A/C306A hDAT) (Homo sapiens, UniProt Q01959, C306A/C90A); experiment: MTSET assay, [3H]DA uptake in HEK293 cells; assay type: cell-based
T1 construct: expressed in transfected cells; host or cells: HEK293 cells, transient, pcDNA3.1+
T1 sequence (Q01959 1-620 C90A/C306A): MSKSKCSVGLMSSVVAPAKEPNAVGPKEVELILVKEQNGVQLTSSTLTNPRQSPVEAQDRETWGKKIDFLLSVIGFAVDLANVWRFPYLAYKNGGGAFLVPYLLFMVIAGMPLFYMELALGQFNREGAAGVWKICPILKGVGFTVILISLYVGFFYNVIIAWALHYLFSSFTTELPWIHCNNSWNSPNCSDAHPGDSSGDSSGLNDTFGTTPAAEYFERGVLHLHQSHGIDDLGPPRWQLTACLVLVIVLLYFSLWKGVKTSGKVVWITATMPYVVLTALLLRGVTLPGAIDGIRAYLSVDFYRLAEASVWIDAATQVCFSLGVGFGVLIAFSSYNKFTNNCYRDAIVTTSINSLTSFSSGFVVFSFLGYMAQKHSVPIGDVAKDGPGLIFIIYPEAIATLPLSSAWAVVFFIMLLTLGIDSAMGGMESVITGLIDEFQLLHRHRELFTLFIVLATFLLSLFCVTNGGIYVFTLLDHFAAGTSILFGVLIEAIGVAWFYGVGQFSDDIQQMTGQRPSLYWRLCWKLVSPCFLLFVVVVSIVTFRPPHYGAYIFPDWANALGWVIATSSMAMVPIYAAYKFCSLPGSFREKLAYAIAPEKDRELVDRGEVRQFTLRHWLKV
Text: (§1) All mutants on hDAT were generated based on the predictions made using our computational model, as described previously using site-directed mutagenesis based on the wild-type hDAT (WT hDAT) sequence (NCBI, cDNA clone MGC: 164,608 IMAGE: 40,146,999) (Quizon et al. [2016]). The combination of hDAT mutations on Asp206 and His547 (Aspartic acid 206 to leucine and histidine 547 to alanine, D206L/H547A) were predicted to eliminate two hydrogen bonds between Tat and hDAT. In addition, the combination of mutations on Tyr88, Asp206, and His547 (tyrosine88 to phenylalanine and aspartic acid 206 to leucine and histidine 547 to alanine, Y88F/D206L/H547A) were predicted to eliminate three hydrogen bonds from the Tat-hDAT complex. Two extracellular cysteine90 and cysteine306 residues on WT hDAT were mutated to alanine as E2C hDAT (C90A/C306A hDAT), rendering the E2C hDAT MTSET-insensitive background (Pedersen et al. [2014]). A triple mutation of the two cysteine90 and 306 residues to alanine and […] to cysteine on WT hDAT was generated as E2C-I159C hDAT (C90A/C306A/I159C) for MTSET-sensitive construct. A combination of C90A/C306A/H547A was generated as E2C/H547A hDAT for MTSET-insensitive control for H547A. To determine whether H547A-enhanced DA transport is mediated by changing transporter conformation, two combinations of C90A/C306A/I159C/H547A and C90A/C306A/I159A/H547A were generated as E2C-I159C/H547A and E2C-I159A/H547A for positive and negative controls for MTSET sensitive background, respectively. Synthetic cDNA encoding hDAT subcloned into pcDNA3.1+ (provided by Dr. Haley E Melikian, University of Massachusetts) was used as a template to generate mutants using site-directed mutagenesis performed by GENEWIZ (South Plainfield, NJ). DNA sequencing was also performed by GENEWIZ to confirm the sequences of the mutant constructs. Plasmid DNA were propagated and purified using the Qiagen Hi-speed maxi prep plasmid DNA isolation kit (Qiagen, Valencia, CA, USA).
(§2) This assay was performed based on the previous report with minor modifications (Loland et al. [2004], [2008]). First, we generated five WT hDAT based plasmid construct for MTSET-insensitive or sensitive background as we described above. HEK293 cells were grown in poly-d-lysine coated plates at a density of 1 × 10^5 cells/cm^2 were transfected with different E2C- associated hDAT background constructs: E2C hDAT, E2C-I159C hDAT, E2C/H547A hDAT, E2C-I159C/H547A or E2C-I159A/H547A. Twenty-four hours after the transfection, cells were washed twice with 1× KRH buffer, and preincubated with or without the presence of 10 µM nomifensine (for non-specific uptake) and MTSET for 10 min at room temperature. MTSET at 1 mM final concentration was chosen based on a pilot study on optimizing MTSET concentrations (0.1, 0.5 or 1.0 mM). […] Because MTSET is easily hydrolyzed in solution, the amount needed for a 10 × stock was weighed out and dissolved in 1 × KRH buffer just right before adding to the assigned wells, for a 10-fold dilution (final concentration of 1 mM in final volume of 250 µl). […] Cells were immediately washed twice with ice-cold 1 × KRH buffer to terminate the reaction and were lysed rapidly with the addition of 1 % SDS. Cell lysates were collected after incubation for 1 h at room temperature and radioactivity was determined the next day.

[2] = target: T2, E2C-I159C/H547A (C90A/C306A/I159C/H547A) (Homo sapiens, UniProt Q01959, C306A/C90A/H547A/I159C); experiment: MTSET assay, [3H]DA uptake in HEK293 cells; assay type: cell-based; conditions: 1 mM MTSET
T2 construct: expressed in transfected cells; host or cells: HEK293 cells, transient, pcDNA3.1+
T2 sequence (Q01959 1-620 C90A/I159C/C306A/H547A): T1 sequence (Q01959 1-620 C90A/C306A) with I159C, H547A
Text: as §1, §2

[3] = E2C, 1 mM MTSET, HEK293, Fig. 8b

## C[N+](C)(C)CCSS(C)(=O)=O [MTSET, [2-(trimethylammonium)ethyl]-methanethiosulfonate]
[1]; [3]
  [3H]DA uptake in the presence of MTSET: 86.5 ± 6.0
  effect of MTSET on DA uptake: no effect
[1]; E2C-hDAT, MTSET 0.1, 0.5, 1.0 mM, pilot study Fig. 8a
  effect on [3H]DA uptake: no effect
[2]; Fig. 8b
  further inhibition of [3H]DA uptake compared to E2C-I159C: 34%
  inhibition of DA uptake relative to E2C: 65%
[2]; HEK293, Fig. 8b
  [3H]DA uptake in the presence of MTSET: 30.4 ± 3.52
